Laboratory results reported in US6235516A, “Biocatalysts with amine acylase activity” (Novartis AG, priority 1996, dated 2001).
“And” between values parts separate entries of the source, which are not always exact repeats. Equal values may be shown once.

Experiments:
[1] = test system: Strain K1/1; assay: Growth and induction of the acylase of Rhodococcus globerulus K1/1, variation of the inducer; type: cell-based; details: for induction of acylase formation by strain K1/1: racemic inducer, 0-9.84 mM
Experimental: Strain K1/1 is grown in shake flask culture using the medium from example 21, but with 2 g/l of each yeast extract and peptone, with racemic 2-acetylamino-1-phenyl-4-pentene or alternatively racemic N-acetyl-1-phenylethylamine as the inducer in concentrations of 0, 4.92, 7.38, and 9.84 mM.

[2] = test system: K1/1 acylase; assay: Hydrolysis of racemic 2-acetylamino-1-phenyl-4-pentene with the purified K1/1 acylase; type: biochemical, Rhodococcus globerulus K1/1
Experimental: To 50 ml of a 10 mM solution of racemic 2-acetylamino-1-phenyl-4-pentene in phosphate buffer (pH 7.0) 7 ml of the K1/1 acylase are added (0.456 U), which has been purified by HIC and concentrated by ultrafiltration (example 26.5 and 26.6). The deacylation is performed at 30° C. under continuous shaking at 200 rpm. The reaction is monitored by HPLC (see example 1), and after the conversion is about 50% the solution is acidified to pH 2 with 1 N HCl and extracted three times with one volume of dichloromethane to obtain the unconverted amides. The aqueous phase is neutralized with 1 N NaOH and extracted again three times with dichloromethane to recover the formed amines. Both organic phases are dried with MgSO4, filtered and the solvent is distilled off. The amides are used directly for optical purity determinations via HPLC under the following conditions: Chiralcel OJ column, hexane/isopropanol 9:1 as the eluent, flow rate 1 ml/min., detection at 208 nm. The obtained amines are converted to the acetamides by adding […] to each sample before being also analyzed for the optical purity by HPLC.

[3] = test system: acylase from Arthrobacter aurescens Ac5R; assay: Enzymatic hydrolysis of racemic amides with highly purified acylase from Arthrobacter aurescens Ac5R; type: biochemical; details: for Selectivity E: enantioselectivity of the hydrolysis; for e.e. (R)-Amine: formed amine, analysed as acetamide by chiral HPLC; for e.e. (S)-Amide: unconverted amide, chiral HPLC
Experimental: (§1) To 10 ml of a 20 mM solution of each of the racemic amides shown below 1 in 0.1 M phosphate buffer pH 7.0, 5 ml (1.3 units) of the enzyme is added and the solutions are shaken at 100 rpm and 30° C. [drawing 10] [drawing 11]
(§2) When the conversion reaches about 50% (checked by HPLC) the solutions are acidified to pH 2 by adding 1 N HCl and extracted three times with dichloromethane to obtain the unconverted amides. The aqueous layers are neutralized with 1 N NaOH solution and extracted again three times with dichloromethane to recover the formed amines. Both organic phases are dried with MgSO4, filtered and the solvent is distilled off. The amides are used directly for optical purity determinations (HPLC), whereas the obtained amines are converted to the acetamides by adding 100 μl triethylamine and 100 μl acetic anhydride to each sample and then analyzed for the optical purity by "chiral" HPLC.

[4] = target: T1, acylase from Rhodococcus equi Ac6 (Rhodococcus (subgen. Prescottella) equi, UniProt A0A3S5Y3Z2); assay: Enzymatic hydrolysis of racemic amides with partially purified acylase from Rhodococcus equi Ac6; type: biochemical; design: e.e. (R)-Amide: unit not given here; details: for Selectivity E: enantioselectivity of the hydrolysis; for e.e. (S)-Amine: formed amine, analysed as acetamide; for e.e. (R)-Amide: unconverted amide, chiral HPLC
T1 construct: N-terminus […]
T1 sequence (A0A3S5Y3Z2 1-487): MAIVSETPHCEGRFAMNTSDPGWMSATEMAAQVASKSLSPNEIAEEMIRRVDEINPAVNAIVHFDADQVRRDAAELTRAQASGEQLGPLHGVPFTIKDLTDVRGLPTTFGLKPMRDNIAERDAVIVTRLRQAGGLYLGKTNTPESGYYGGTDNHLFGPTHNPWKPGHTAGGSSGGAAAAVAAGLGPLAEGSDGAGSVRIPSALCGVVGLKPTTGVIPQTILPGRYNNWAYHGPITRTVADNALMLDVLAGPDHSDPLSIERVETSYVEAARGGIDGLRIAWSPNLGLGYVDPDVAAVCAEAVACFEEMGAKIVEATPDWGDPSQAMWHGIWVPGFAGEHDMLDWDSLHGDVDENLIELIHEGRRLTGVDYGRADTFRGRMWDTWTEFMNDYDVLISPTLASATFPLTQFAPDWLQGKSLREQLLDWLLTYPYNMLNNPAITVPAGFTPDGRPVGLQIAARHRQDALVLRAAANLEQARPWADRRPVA
Experimental: as §1, §2
The experiments are carried out in the same manner as described in example 22.

[5] = test system: whole cells of Rhodococcus globerulus K1/1; assay: Amide hydrolysis with whole cells of Rhodococcus globerulus K1/1; type: cell-based; details: for Selectivity E: enantioselectivity of the hydrolysis; for e.e. (S)-Amine: formed amine, analysed as acetamide; for e.e. (R)-Amide: unconverted amide, chiral HPLC
Excerpt: as §2
To 50 ml of a 10 mM solution in phosphate buffer pH 7.0 of each racemic amide listed in table 16, whole cells of Rhodococcus globerulus K1/1 (each obtained from 50 ml shake flask medium (see example 21), OD660 =2.0) is added. The deacetylation is performed at 30° C. under continuous shaking (200 rpm). The reaction is monitored by HPLC and after the conversion is about 50% the reaction mixtures are worked up in the same manner as described in example 22.

[6] = test system: AcR5b-acylase; assay: Dependence of the reaction velocity of the AcR5b-acylase on substrate concentration (Km, Vmax); type: biochemical, Arthrobacter aurescens AcR5b
Experimental: Activity assays are performed under the standard conditions given in example 11 with an incubation time of 30 min. using different initial concentrations of (R)-N-acetyl-1-phenylethylamine and racemic N-acetyl-(m-cyano-phenyl)ethylamine. The final AcR5b-acylase preparation obtained in example 4d, which has been diluted 20 fold with 69 mM potassium phosphate buffer, pH 7, serve as the enzyme source. The Michaelis constants (Km) and the maximum reaction velocities are calculated as described in example 9.

[7] = test system: AcR5b-acylase; assay: Stability of the AcR5b-acylase during freezing, with and without cryoprotective agents; type: physicochemical, Arthrobacter aurescens AcR5b

Structure (SMILES) | Selectivity E [3] | e.e. (R)-Amine [3] | e.e. (S)-Amide [3] | Selectivity E [5] | e.e. (S)-Amine [5] | e.e. (R)-Amide [5] | further results
C=CCC(Cc1ccccc1)NC(C)=O (racemic) [2-acetylamino-1-phenyl-4-pentene] | – | – | – | – | – | – | induction of acylase formation by strain K1/1 [1]: inducing substance; conversion ([2]; 10 mM racemic substrate, 0.456 U K1/1 acylase, pH 7.0, 30° C.): 50.3%; E-value ([2]; at 50.3% conversion): 74.9
CC(=O)NC(C)c1ccccc1 (racemic) [Substrate 1a, N-acetyl 1-phenylethylamine] | > 500 | 98.2 | > 99.9 | > 500 | 97.5 | > 99.9 | effect on growth of strain K1/1 ([1]; 7.38 and 9.84 mM): do not inhibit the growth; induction of acylase formation by strain K1/1 [1]: inducing substance; Selectivity E [4]: 350; e.e. (S)-Amine [4]: 96.8; e.e. (R)-Amide [4]: 99.3
CCC(NC(C)=O)c1ccccc1 (racemic) [Substrate 4a] | > 500 | > 99.9 | 87.4 | 140 | 90.0 | > 99.9 | Selectivity E [4]: > 500; e.e. (S)-Amine [4]: 98.5; e.e. (R)-Amide [4]: > 99.9
CC(=O)NC1CCOc2ccccc21 (racemic) [Substrate 6a] | 32 | 90.5 | 46.6 | 290 | 93.5 | > 99.9 | –
C=CCC(Cc1ccccc1)NC(C)=O (racemic) [Substrate 10a] | – | – | – | 70 | 90.0 | 95.7 | –
CCCC(Cc1ccccc1)NC(C)=O (racemic) [Substrate 11a] | – | – | – | 35 | 77.8 | 97.8 | –
CCC(Cc1ccccc1)NC(C)=O (racemic) [Substrate 12a] | – | – | – | 87 | 93.0 and 87.9 | 90.7 and > 99.9 | –
CC(=O)NC(C)c1cccc(C#N)c1 (racemic) [racemic (m-cyano) derivative, N-acetyl-(m-cyano-phenyl)ethylamine] | – | – | – | – | – | – | Km ([6]; 30 min incubation, pH 7): 10.4 mM; relative maximum reaction velocity ([6]; (R)-N-acetyl-1-phenylethylamine = 100): 23%
OCC(O)CO [5% Glycerol, Glycerol] | – | – | – | – | – | – | Relative activity (%) ([7]; AcR5b-acylase frozen 2.5 h at -20° C. with the cryoprotective agent of the label (label AcR5b-acylase = none)): 100%; Relative activity (%) ([7]; AcR5b-acylase frozen 2.5 h at -80° C. with the cryoprotective agent of the label (label AcR5b-acylase = none)): 100%; Relative activity (%) ([7]; AcR5b-acylase frozen 9 days at -20° C. with the cryoprotective agent of the label (label AcR5b-acylase = none)): 89%; Relative activity (%) ([7]; AcR5b-acylase frozen 9 days at -80° C. with the cryoprotective agent of the label (label AcR5b-acylase = none)): 97%
